Assay results published in patent publication US11339169B2, “P2X3 and/or P2X2/3 compounds and methods” (Asana BioSciences, LLC, priority 2016, dated 2022).
“And” between values parts separate entries of the source, which are not always exact repeats. Equal entries are not always repeated.

Experiments:
hP2X3 = molecular target: T1, hP2X3 (Homo sapiens, UniProt P56373); assay: FLIPR intracellular calcium assay, hP2X3; format: cell-based; details: human P2X3-HEK cells, agonist at EC75
T1 construct: host or cells: HEK (hP2X3-HEK)
T1 sequence (P56373 1-397): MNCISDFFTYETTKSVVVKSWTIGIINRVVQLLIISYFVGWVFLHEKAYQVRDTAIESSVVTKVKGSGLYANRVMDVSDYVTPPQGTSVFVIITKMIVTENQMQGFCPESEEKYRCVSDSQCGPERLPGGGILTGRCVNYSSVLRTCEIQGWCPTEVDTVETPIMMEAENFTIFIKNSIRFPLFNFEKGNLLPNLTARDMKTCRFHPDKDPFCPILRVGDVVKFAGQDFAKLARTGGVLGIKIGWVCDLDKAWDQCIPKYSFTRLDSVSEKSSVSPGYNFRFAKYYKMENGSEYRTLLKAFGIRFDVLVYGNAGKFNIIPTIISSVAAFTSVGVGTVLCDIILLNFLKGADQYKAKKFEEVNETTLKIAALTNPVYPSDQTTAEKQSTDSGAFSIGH
Method in brief: (§1)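 HEK (hP2X3) or tetracycline-inducible TRex293 (hP2X2/3) cells loaded with Calcium 4 dye, then given 11-point half-log compound dilutions for 15 min at room temperature in HBSS/HEPES, pH 7.4, with 1.8 mM CaCl2. Cells challenged with agonist at EC75; IC50 derived from fluorescence inhibition versus no-compound wells.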

hP2X2/3 = molecular target: T2, hP2X2/3 (Homo sapiens, UniProt P56373+Q9UBL9); assay: FLIPR intracellular calcium assay, hP2X2/3; format: cell-based; details: human P2X2/3-TRex293 cells, agonist at EC75
T2 construct: host or cells: TRex293 (hP2X2/3-TRex293), doxycycline-induced
T2 sequence (P56373 1-397): T1 sequence (P56373 1-397)
T2 sequence (Q9UBL9 1-471): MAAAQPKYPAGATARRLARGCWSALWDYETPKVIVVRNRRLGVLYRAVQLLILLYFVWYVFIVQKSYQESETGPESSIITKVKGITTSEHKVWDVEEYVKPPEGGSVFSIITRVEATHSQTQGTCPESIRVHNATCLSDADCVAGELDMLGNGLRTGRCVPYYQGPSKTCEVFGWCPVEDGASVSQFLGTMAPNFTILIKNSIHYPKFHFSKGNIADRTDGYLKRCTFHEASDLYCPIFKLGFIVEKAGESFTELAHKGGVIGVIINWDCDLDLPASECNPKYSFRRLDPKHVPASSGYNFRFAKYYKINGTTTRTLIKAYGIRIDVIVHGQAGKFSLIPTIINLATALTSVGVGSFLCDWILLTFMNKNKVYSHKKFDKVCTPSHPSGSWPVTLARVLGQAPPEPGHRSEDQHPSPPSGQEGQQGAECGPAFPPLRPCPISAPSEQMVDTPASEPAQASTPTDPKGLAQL
Method in brief: as §1

Male Sprague Dawley rats = assay: In vivo thermal hyperalgesia (Hargreaves test), CFA-injected rat; details: at 1 hour, p<0.01
Experimental: Male Sprague Dawley rats of young adult age group and body weight range of 180-200 g were included in the study. Animals were housed under a 12 h light/dark cycle with food and water ad libitum. The animals underwent acclimatization with the observation chambers of the Hargreaves' apparatus for two days, twice daily for 45-60 min each time prior to initiation of study. Animals were also habituated to the apparatus for 15-30 min before each testing. Thermal hyperalgesia was assessed using the rat plantar test (Ugo Basile, Italy) following a modified method of Hargreaves (1988), “A new and sensitive method for measuring thermal nociception in cutaneous hyperalgesia”, Pain 32: 77-88, the entire disclosure of which is herein incorporated by reference. […]
Following basal readout of PWL values to the thermal stimulus (PWL measurements described previously), 50 μL of complete Freund's Adjuvant (CFA—1 mg/mL suspension—Sigma, USA, Cat #F5881) was injected subcutaneously into the plantar surface of the right hind (ipsilateral) paw of animals under light isoflurane anesthesia. […]
Next day (day 1) after 20-22 h of CFA injection, PWL of animals were recorded. Mean of three readings are taken as PWL recording of ipsilateral paw of each animal for pre and post CFA basal readout. […]

Structure (SMILES) | IC50 (hP2X3) | IC50 (hP2X2/3) | reversal to pre-treatment PWL value (Male Sprague Dawley rats; 30 mg/kg po) | reversal to pre-treatment PWL value (Male Sprague Dawley rats; 60 mg/kg po)
CCC(C)n1ncc2nc(N3CCN(C(N)=O)CC3)nc(N[C@@H](c3cnc4ccccc4c3)C3CC3)c21 (stereo partly drawn) [Example 10, 4-{1-sec-Butyl-7-[((R)-cyclopropyl-quinolin-3-yl-methyl)-amino]-1H-pyrazolo[4,3-d]pyrimidin-5-yl}-piperazine-1-carboxylic Acid Amide] | 1 to 100 nM | 1 to 100 nM | 32% | –
CC(=O)N1CCN(c2nc(N[C@H](C)c3cnc4ccccc4c3)c3c(cnn3C3CCC3)n2)CC1 [Example 48] | 1 to 100 nM | 1000 to 10000 nM | – | –
CC(=O)N1CCN(c2nc(NC(C)c3cnc4ccccc4c3)c3nn(C(C)C)c(Br)c3n2)CC1 (centres unmarked) [Example 94] | 1 to 100 nM | 1000 to 10000 nM | – | –
CCC(C)n1ncc2nc(-c3cnn(CCO)c3)nc(N[C@@H](c3cnc4ccccc4c3)C3CC3)c21 (some centres unmarked) [Example 121] | 1 to 100 nM | 100 to 1000 nM | – | –
Cn1cc(-c2nc(N[C@@H](c3cnc4ccccc4c3)C3CC3)c3c(cnn3C3CCOCC3)n2)cn1 [Example 117] | 1 to 100 nM | 1000 to 10000 nM | – | –
CCC(C)n1ncc2nc(N3CCN(C(N)=NC#N)CC3)nc(N[C@@H](c3cnc4ccccc4c3)C3CC3)c21 (stereo partly drawn) [Example 110, 4-(1-sec-butyl-7-{[(R)-cyclopropyl(quinolin-3-yl)methyl]amino}-1H-pyrazolo[4,3-d]pyrimidin-5-yl)-N′-cyanopiperazine-1-carboximidamide] | 1 to 100 nM | 1 to 100 nM | – | –
CCC(C)n1ncc2nc(-c3cnn(CCF)c3)nc(N[C@H](C)c3cn4ccc(C)cc4n3)c21 (some centres unmarked) [Example 123] | 1 to 100 nM | 1000 to 10000 nM and 100 to 1000 nM | – | –
CC(=O)N1CCN(c2nc(NC(C)(C)Cc3ccc(Cl)cc3)c3nn(C(C)C)c(C)c3n2)CC1 [Example 101] | 100 to 1000 nM | 1000 to 10000 nM | – | –
CC(=O)N1CCN(c2nc(NC(C)(C)Cc3ccc(Cl)cc3)c3nn(C(C)C)cc3n2)CC1 [Example 3] | 100 to 1000 nM | 1000 to 10000 nM | – | –
CC(=O)N1CCN(c2nc(N[C@H](C)c3cnc4ccccc4c3)c3c(n2)c(Br)nn3C(C)C)CC1 [Example 100] | 1 to 100 nM | 1000 to 10000 nM | – | –
CC(=O)N1CCN(c2nc(N[C@H](C)c3cnc4ccccc4c3)c3nn(C(C)C)c(Br)c3n2)CC1 [Example 98] | 1 to 100 nM | 1000 to 10000 nM | – | –
CC(C)n1ncc2nc(N3CCN(C(N)=O)CC3)nc(N[C@@H](c3cnc4ccccc4c3)C3CC3)c21 [Example 66] | 1 to 100 nM | 100 to 1000 nM | – | –
CCC(C)n1nc2c(N[C@H](C)c3cnc4ccccc4c3)nc(N3CCN(C(C)=O)CC3)nc2c1Br (some centres unmarked) [Example 105] | 1 to 100 nM | 1000 to 10000 nM | – | –
CCC(C)n1nc2c(N[C@H](C)c3cnc4ccccc4c3)nc(N3CCN(C(C)=O)CC3)nc2c1C#N (some centres unmarked) [Example 106] | 1 to 100 nM | 1000 to 10000 nM | – | –
CC(C)n1ncc2nc(N3CCN(C)C(=O)C3)nc(N[C@H](C)c3cnc4ccccc4c3)c21 [Example 15] | 1 to 100 nM | 1000 to 10000 nM | – | –
CCC(C)n1ncc2nc(-c3cnn(CCF)c3)nc(N[C@@H](c3cnc4ccccc4c3)C3CC3)c21 (some centres unmarked) [Example 116] | 1 to 100 nM | 1 to 100 nM | – | –
CCC(C)n1ncc2nc(-n3cnnn3)nc(N[C@@H](c3cnc4ccccc4c3)C3CC3)c21 (single isomer, unassigned) [Example 79] | 100 to 1000 nM | 1000 to 10000 nM | – | –

More lines, main results first:

IC50 (hP2X3) | IC50 (hP2X2/3) | Structure (SMILES) | reversal to pre-treatment PWL value (Male Sprague Dawley rats; 30 mg/kg po) | reversal to pre-treatment PWL value (Male Sprague Dawley rats; 60 mg/kg po)
1 to 100 nM | 100 to 1000 nM | CC[C@H](C)n1ncc2nc(N3CCN(C(C)=O)CC3)nc(N[C@H](C)c3cnc4ccccc4c3)c21 [Example 19] | – | 36%
1 to 100 nM | 1000 to 10000 nM | CCC(CC)n1ncc2nc(N3CCN(C(C)=O)CC3)nc(NCC3(c4ccc(Cl)cc4)CCC3)c21 [Example 29] | – | –
1 to 100 nM | 100 to 1000 nM | CCC(CC)n1ncc2nc(N3CCN(C(C)=O)CC3)nc(NC(C)c3ccc4oc(C5CC5)cc4c3)c21 (centres unmarked) [Example 55] | – | –
1 to 100 nM | 1000 to 10000 nM | CCC(C)n1ncc2nc(N3CCN(C(C)=O)CC3)nc(NC(C)c3ccc4oc(C)cc4c3)c21 (centres unmarked) [Example 45] | – | –
1 to 100 nM | 100 to 1000 nM | CCC(C)n1ncc2nc(N3CCN(C(C)=O)CC3)nc(N[C@@H](c3cnc4ccccc4c3)C3CC3)c21 (some centres unmarked) [Example 56] | – | –
1 to 100 nM | 1000 to 10000 nM | CCC(C)n1ncc2nc(N3CCN(C(C)=O)CC3)nc(N[C@H](CC)c3cnc4ccccc4c3)c21 (some centres unmarked) [Example 43] | – | –
1 to 100 nM | 100 to 1000 nM | CC(=O)N1CCN(c2nc(N[C@@H](c3cnc4ccccc4c3)C3CC3)c3c(cnn3C(C)C(C)C)n2)CC1 (some centres unmarked) [Example 62] | – | –
1 to 100 nM | 1 to 100 nM | CCC(CC)n1ncc2nc(N3CCN(C(N)=O)CC3)nc(N[C@H](C)c3cnc4ccccc4c3)c21 [Example 51] | – | –
1 to 100 nM | 1000 to 10000 nM | CCOc1ccc([C@H](C)Nc2nc(N3CCN(C(C)=O)CC3)nc3cnn(C(CC)CC)c23)cc1 [Example 33] | – | –
1 to 100 nM | 1000 to 10000 nM | CC(=O)N1CCN(c2nc(NC(C)(C)Cc3ccc(Cl)cc3)c3c(cnn3C(C)C)n2)CC1 [Example 13] | – | –
1 to 100 nM | 100 to 1000 nM | CCC(C)n1ncc2nc(N3CCN(C(C)=O)CC3)nc(N[C@H](C)c3cnc4ccccc4c3)c21 (stereo partly drawn) [Example 89, 1-{4-[1-sec-Butyl-7-((R)-1-quinolin-3-yl-ethylamino)-1H-pyrazolo[4,3-d]pyrimidin-5-yl]-piperazin-1-yl}-ethanone] | – | –
1 to 100 nM | 1 to 100 nM | CCC(CC)n1ncc2nc(N3CCN(C(C)=O)CC3)nc(N[C@@H](c3cnc4ccccc4c3)C3CC3)c21 [Example 44] | – | –
1 to 100 nM | 1000 to 10000 nM | CCC(CC)n1ncc2nc(N3CCN(C(C)=O)CC3)nc(NC(C)c3ccc(OC(C)C)cc3)c21 (centres unmarked) [Example 47] | – | –
1 to 100 nM | 1000 to 10000 nM | CCC(C)n1nc(Br)c2nc(N3CCN(C(C)=O)CC3)nc(N[C@H](C)c3cnc4ccccc4c3)c21 (stereo partly drawn) [Example 90, 1-{4-[3-Bromo-1-sec-butyl-7-((R)-1-quinolin-3-yl-ethylamino)-1H-pyrazolo[4,3-d]pyrimidin-5-yl]-piperazin-1-yl}-ethanone] | – | –
1 to 100 nM | 100 to 1000 nM | CCC(CC)n1ncc2nc(N3CCN(C(C)=O)CC3)nc(N[C@H](C)c3ccc4ccccc4c3)c21 [Example 40] | – | –
1 to 100 nM | 1000 to 10000 nM | CCC(CC)n1ncc2nc(N3CCN(C(N)=O)CC3)nc(NCc3cnc4ccccc4c3)c21 [Example 64] | – | –
